# Tests used:
# Assay in all cases: relative viability (nuclei count vs DMSO), 5 days (fraction); higher = more cells survive
# NCI-H2085 = system: NCI-H2085
# Method in brief: (§1)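 The day after seeding in 1536-well plates, lung cancer cell lines were treated by pin tool with a single drug, or with a fixed anchor-drug dose together with five library-drug doses (not always all listed) in √10 steps. After 5 days, a combined fix-and-stain solution (final 0.05% Triton X-100, 1% formaldehyde, 1 ug/ml Hoechst) was added. Nuclei counted on 4× images gave relative viability as treated counts over vehicle counts, reported as the median of duplicate plates.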
# NCI-H358 = system: NCI-H358
# Method in brief: as §1
# NCI-H1755 = system: NCI-H1755
# Method in brief: as §1
# NCI-H1563 = system: NCI-H1563
# Method in brief: as §1
# NCI-H838 = system: NCI-H838
# Method in brief: as §1
# CAL-12T = system: CAL-12T
# Method in brief: as §1
# NCI-H1975 = system: NCI-H1975
# Method in brief: as §1
# HCC-366 = system: HCC-366
# Method in brief: as §1
# NCI-H1651 = system: NCI-H1651
# Method in brief: as §1
# NCI-H1437 = system: NCI-H1437
# Method in brief: as §1
# LOU-NH91 = system: LOU-NH91
# Method in brief: as §1
# NCI-H1395 = system: NCI-H1395
# Method in brief: as §1
# BEN = system: BEN
# Method in brief: as §1
# HCC-44 = system: HCC-44
# Method in brief: as §1
# NCI-H1355 = system: NCI-H1355
# Method in brief: as §1
# NCI-H1650 = system: NCI-H1650
# Method in brief: as §1
# EKVX = system: EKVX
# Method in brief: as §1
# LU99A = system: LU99A
# Method in brief: as §1
# NCI-H460 = system: NCI-H460
# Method in brief: as §1
# NCI-H2023 = system: NCI-H2023
# Method in brief: as §1
# NCI-H1734 = system: NCI-H1734
# Method in brief: as §1
smiles,measurement,setting,value
NC(=O)Nc1cc(-c2cccc(F)c2)sc1C(=O)N[C@H]1CCCNC1 [AZD7762] + CS(=O)(=O)CCNCc1ccc(-c2ccc3ncnc(Nc4ccc(OCc5cccc(F)c5)c(Cl)c4)c3c2)o1 [Lapatinib] (partner 2 µM),relative viability,NCI-H2085; first compound 0.01 µM,0.804
same,relative viability,NCI-H2085; first compound 0.03162 µM,0.878
same,relative viability,NCI-H2085; first compound 0.1 µM,0.873
same,relative viability,NCI-H2085; first compound 0.3162 µM,0.78
same,relative viability,NCI-H2085; first compound 1 µM,0.6
same,relative viability,NCI-H358; first compound 0.01 µM,0.478
same,relative viability,NCI-H358; first compound 0.03162 µM,0.537
same,relative viability,NCI-H358; first compound 0.1 µM,0.497
same,relative viability,NCI-H358; first compound 0.3162 µM,0.451
same,relative viability,NCI-H358; first compound 1 µM,0.327
same,relative viability,NCI-H1755; first compound 0.01 µM,1.07
same,relative viability,NCI-H1755; first compound 0.03162 µM,1.1
same,relative viability,NCI-H1755; first compound 0.1 µM,1.17
same,relative viability,NCI-H1755; first compound 0.3162 µM,0.924
same,relative viability,NCI-H1755; first compound 1 µM,0.364
same,relative viability,NCI-H1563; first compound 0.01 µM,0.868
same,relative viability,NCI-H1563; first compound 0.03162 µM,1.04
same,relative viability,NCI-H1563; first compound 0.1 µM,1.04
same,relative viability,NCI-H1563; first compound 0.3162 µM,0.982
same,relative viability,NCI-H1563; first compound 1 µM,0.904
same,relative viability,NCI-H838; first compound 0.01 µM,0.917
same,relative viability,NCI-H838; first compound 0.03162 µM,0.908
same,relative viability,NCI-H838; first compound 0.1 µM,1.07
same,relative viability,NCI-H838; first compound 0.3162 µM,0.903
same,relative viability,NCI-H838; first compound 1 µM,0.268
same,relative viability,CAL-12T; first compound 0.01 µM,0.781
same,relative viability,CAL-12T; first compound 0.03162 µM,0.649
same,relative viability,CAL-12T; first compound 0.1 µM,0.649
same,relative viability,CAL-12T; first compound 0.3162 µM,0.703
same,relative viability,CAL-12T; first compound 1 µM,0.314
same,relative viability,NCI-H1975; first compound 0.01 µM,0.89
same,relative viability,NCI-H1975; first compound 0.03162 µM,0.831
same,relative viability,NCI-H1975; first compound 0.1 µM,0.776
same,relative viability,NCI-H1975; first compound 0.3162 µM,0.639
same,relative viability,NCI-H1975; first compound 1 µM,0.398
same,relative viability,HCC-366; first compound 0.01 µM,0.991
same,relative viability,HCC-366; first compound 0.03162 µM,1.12
same,relative viability,HCC-366; first compound 0.1 µM,0.879
same,relative viability,HCC-366; first compound 0.3162 µM,0.375
same,relative viability,HCC-366; first compound 1 µM,0.0771
same,relative viability,NCI-H1651; first compound 0.01 µM,0.93
same,relative viability,NCI-H1651; first compound 0.03162 µM,0.832
same,relative viability,NCI-H1651; first compound 0.1 µM,0.909
same,relative viability,NCI-H1651; first compound 0.3162 µM,0.607
same,relative viability,NCI-H1651; first compound 1 µM,0.195
same,relative viability,NCI-H1437; first compound 0.01 µM,0.809
same,relative viability,NCI-H1437; first compound 0.03162 µM,0.647
same,relative viability,NCI-H1437; first compound 0.1 µM,0.875
same,relative viability,NCI-H1437; first compound 0.3162 µM,0.841
same,relative viability,NCI-H1437; first compound 1 µM,0.526
same,relative viability,LOU-NH91; first compound 0.01 µM,0.792
same,relative viability,LOU-NH91; first compound 0.03162 µM,0.791
same,relative viability,LOU-NH91; first compound 0.1 µM,0.753
same,relative viability,LOU-NH91; first compound 0.3162 µM,0.572
same,relative viability,LOU-NH91; first compound 1 µM,0.639
same,relative viability,NCI-H1395; first compound 0.01 µM,1.04
same,relative viability,NCI-H1395; first compound 0.03162 µM,1.06
same,relative viability,NCI-H1395; first compound 0.1 µM,1.05
same,relative viability,NCI-H1395; first compound 0.3162 µM,0.543
same,relative viability,NCI-H1395; first compound 1 µM,0.362
same,relative viability,BEN; first compound 0.01 µM,0.788
same,relative viability,BEN; first compound 0.03162 µM,0.623
same,relative viability,BEN; first compound 0.1 µM,0.566
same,relative viability,BEN; first compound 0.3162 µM,0.833
same,relative viability,BEN; first compound 1 µM,0.488
same,relative viability,HCC-44; first compound 0.01 µM,1.11
same,relative viability,HCC-44; first compound 0.03162 µM,0.952
same,relative viability,HCC-44; first compound 0.1 µM,0.998
same,relative viability,HCC-44; first compound 0.3162 µM,0.932
same,relative viability,HCC-44; first compound 1 µM,0.99
same,relative viability,NCI-H1355; first compound 0.01 µM,1
same,relative viability,NCI-H1355; first compound 0.03162 µM,0.993
same,relative viability,NCI-H1355; first compound 0.1 µM,1.01
same,relative viability,NCI-H1355; first compound 0.3162 µM,1.02
same,relative viability,NCI-H1355; first compound 1 µM,0.719
same,relative viability,NCI-H1650; first compound 0.01 µM,0.747
same,relative viability,NCI-H1650; first compound 0.03162 µM,0.852
same,relative viability,NCI-H1650; first compound 0.1 µM,0.896
same,relative viability,NCI-H1650; first compound 0.3162 µM,0.434
same,relative viability,NCI-H1650; first compound 1 µM,0.167
same,relative viability,EKVX; first compound 0.01 µM,0.204
same,relative viability,EKVX; first compound 0.03162 µM,0.232
same,relative viability,EKVX; first compound 0.1 µM,0.206
same,relative viability,EKVX; first compound 0.3162 µM,0.253
same,relative viability,EKVX; first compound 1 µM,0.166
same,relative viability,LU99A; first compound 0.01 µM,0.954
same,relative viability,LU99A; first compound 0.03162 µM,1.1
same,relative viability,LU99A; first compound 0.1 µM,0.952
same,relative viability,LU99A; first compound 0.3162 µM,0.789
same,relative viability,LU99A; first compound 1 µM,0.416
same,relative viability,NCI-H460; first compound 0.01 µM,1.07
same,relative viability,NCI-H460; first compound 0.03162 µM,0.972
same,relative viability,NCI-H460; first compound 0.1 µM,0.824
same,relative viability,NCI-H460; first compound 0.3162 µM,0.467
same,relative viability,NCI-H460; first compound 1 µM,0.0597
same,relative viability,NCI-H2023; first compound 0.01 µM,0.601
same,relative viability,NCI-H2023; first compound 0.03162 µM,0.758
same,relative viability,NCI-H2023; first compound 0.1 µM,0.366
same,relative viability,NCI-H2023; first compound 0.3162 µM,0.198
same,relative viability,NCI-H2023; first compound 1 µM,0.102
same,relative viability,NCI-H1734; first compound 0.01 µM,0.974
same,relative viability,NCI-H1734; first compound 0.03162 µM,1.16
same,relative viability,NCI-H1734; first compound 0.1 µM,1.13
same,relative viability,NCI-H1734; first compound 0.3162 µM,0.946
same,relative viability,NCI-H1734; first compound 1 µM,0.67

# From the supplement of paper PMC10307832
